One test has as its target T1, N-type Ca^2+ channel (Homo sapiens, UniProt Q00975).
T1 construct: host or cells: IMR-32 human neuroblastoma cells, differentiated with dibutyryl cAMP and bromodeoxyuridine
As to the kind of experiment: N-type Ca2+ channel blocking potency in IMR-32 cells using the fluorescent Ca2+ indicator Indo-1. Conditions: for pIC50: K+-stimulated Ca2+ flux, 5 μM nitrendipine to block L-type channels, read-out: IMR32 IC50; for IMR32 % @ 1: at 1 μM; for IMR32 % @ 1 / IMR32 % @ 10: 5 μM nitrendipine; for IMR32 % @ 10: at 10 μM. The class given is cell-based. The protocol:
Measurement of N-type Ca^2+ Channel Blocking Potencies of Compounds in IMR-32 Cells Using the Fluorescent Ca^2+ Indicator Indo-1
IMR-32 cells are a human tumoral cell line of neural origin. […] Calcium flux into these cells may be induced by stimulation with elevated potassium concentrations. The L-channel component of calcium flux may be blocked by adding 5 μM nitrendipine. The remaining component of calcium entry into the IMR-32 cells is due to calcium flux through N-type calcium channels. Intracellular calcium concentrations are measured using the fluorescent calcium indicator Indo-1. The effect of drug concentration on calcium uptake is studied.
The IMR-32 cell line was obtained from the American Type Culture Collection (Rockville, Md.). Cells were grown in Eagle's Minimum Essential Medium with Earle's salts supplemented with 10% fetal bovine serum, 2 mM L-Gln and antibiotic/antimicotic mixture (Gibco). At approximately 80% confluency, differentiation was induced by the addition of 1 mM dibutyryl cAMP and 2.5 μM bromodeoxyuridine to the medium. After 7 to 13 days of differentiation, cells were detached using 0.5 mM EDTA and loaded with 5 μM Indo-1 acetoxymethyl ester (Molecular Probes, Eugene, Oreg.) at […] for 45 minutes. Loaded cells were washed twice, resuspended (~10^7 cells/mL) in assay buffer (10 mM HEPES/Tris pH 7.4 in Hank's Balanced Salt Solution without bicarbonate or phenol red containing 0.5% bovine serum albumin) and kept on ice until use. Fluorescence measurements were carried out in a Photon Technology International (PTI, South Brunswick, N.J.) Model RF-F3004 spectrofluorometer with dual emission monochromators using excitation at 350 nm and emission at 400 and 490 nm. The instrument was equipped with a thermostated cuvette holder with stirring capabilities, as well as with a computer-controlled pump that allowed for reagent addition during measurement. Instrument control and data collection was done by PTI's OSCAR software running on an IBM compatible computer. Different concentrations of the test compounds (60 μL in dimethyl sulfoxide) were added to 5.94 mL of assay buffer containing approximately 3×10^6 loaded cells, and 5 μM Nitrendipine (in 30 μL EtOH) to block L-type Ca^2+ channels. Samples were incubated for 10 minutes at 30° C. and then aliquoted into three 10×10 mm disposable acrylic cuvettes. Emission signals at 400 and 490 nm were acquired from each cuvette at 30° C. for 50 seconds. At 20 seconds after the start of reading, cells were depolarized by the addition of 160 μL of stimulation solution (1 M KCl, 68 mM CaCl2) to the cuvette via the computer-controlled pump. Ratio of dual emission signals (400 nm/490 nm), which is proportional to intracellular Ca^2+ concentration, was plotted against time, and the difference between maximal response after stimulation and basal value (before stimulation) was determined. Values obtained in this way were plotted as a function of drug concentration. IC50 values of test compounds were calculated by fitting a four-parameter logistic function to the data using the least squared method.
On the technique in general: Calcium flux is commonly read through the fluorescence of an indicator in the cells.

The test system of the next test is DBA/2 mice. As to the kind of experiment: Audiogenic seizure model in DBA/2 mice. The class given is in vivo. The following applies: protected/tested. The method, then: Audiogenic Seizure Model in DBA/2 Mice
In Vivo Biological Protocol
A compound of the present invention was dissolved in water using 10% (weight/volume) Emulphor (GAF Corp., Wayne, N.J.) surfactant. Substances were administered by intravenous injection into the retro-orbital venous sinus. All testing was performed 15 minutes or 45 minutes after drug injection. All the male mice, 3 to 4 weeks old, were obtained from Jackson Laboratories, Bar Harbour, Me. Immediately before anticonvulsant testing, mice were placed upon a wire mesh, 4 inches square suspended from a steel rod. […] Any mouse falling from the wire mesh was scored as ataxic.
Mice were placed into an enclosed acrylic plastic chamber (21 cm height, approximately 30 cm diameter) with a high-frequency speaker (4 cm diameter) in the center of the top lid. An audio signal generator (Protek model B-810) was used to produce a continuous sinusoidal tone that was swept linearly in frequency between 8 kHz and 16 kHz once each 10 msec. The average sound pressure level (SPL) during stimulation was approximately 100 dB at the floor of the chamber. Mice were placed within the chamber and allowed to acclimatize for 1 minute. DBA/2 mice in the vehicle-treated group responded to the sound stimulus (applied until tonic extension occurred, or for a maximum of 60 seconds) with a characteristic seizure sequence consisting of wild running followed by clonic seizures, and later by tonic extension, and finally by respiratory arrest and death in 80% or more of the mice. In vehicle-treated mice, the entire sequence of seizures to respiratory arrest lasts approximately 15 to 20 seconds.
The incidence of all the seizure phases in the drug-treated and vehicle-treated mice was recorded, and the occurrence of tonic seizures were used for calculating anticonvulsant ED50 values by probit analysis. Mice were used only once for testing at each time and dose point.

Setting [1] is: 30 mg/kg IV, 15 minutes post treatment.
The mark [2] stands for this setting: 30 mg/kg IV, 45 minutes post treatment.
Setting [3] is: 10 mg/kg IV, 15 minutes post treatment.

pIC50: −log10 of the molar value. Structures can show the parent of a compound that is named as a salt.

T1 sequence (Q00975 whole entry): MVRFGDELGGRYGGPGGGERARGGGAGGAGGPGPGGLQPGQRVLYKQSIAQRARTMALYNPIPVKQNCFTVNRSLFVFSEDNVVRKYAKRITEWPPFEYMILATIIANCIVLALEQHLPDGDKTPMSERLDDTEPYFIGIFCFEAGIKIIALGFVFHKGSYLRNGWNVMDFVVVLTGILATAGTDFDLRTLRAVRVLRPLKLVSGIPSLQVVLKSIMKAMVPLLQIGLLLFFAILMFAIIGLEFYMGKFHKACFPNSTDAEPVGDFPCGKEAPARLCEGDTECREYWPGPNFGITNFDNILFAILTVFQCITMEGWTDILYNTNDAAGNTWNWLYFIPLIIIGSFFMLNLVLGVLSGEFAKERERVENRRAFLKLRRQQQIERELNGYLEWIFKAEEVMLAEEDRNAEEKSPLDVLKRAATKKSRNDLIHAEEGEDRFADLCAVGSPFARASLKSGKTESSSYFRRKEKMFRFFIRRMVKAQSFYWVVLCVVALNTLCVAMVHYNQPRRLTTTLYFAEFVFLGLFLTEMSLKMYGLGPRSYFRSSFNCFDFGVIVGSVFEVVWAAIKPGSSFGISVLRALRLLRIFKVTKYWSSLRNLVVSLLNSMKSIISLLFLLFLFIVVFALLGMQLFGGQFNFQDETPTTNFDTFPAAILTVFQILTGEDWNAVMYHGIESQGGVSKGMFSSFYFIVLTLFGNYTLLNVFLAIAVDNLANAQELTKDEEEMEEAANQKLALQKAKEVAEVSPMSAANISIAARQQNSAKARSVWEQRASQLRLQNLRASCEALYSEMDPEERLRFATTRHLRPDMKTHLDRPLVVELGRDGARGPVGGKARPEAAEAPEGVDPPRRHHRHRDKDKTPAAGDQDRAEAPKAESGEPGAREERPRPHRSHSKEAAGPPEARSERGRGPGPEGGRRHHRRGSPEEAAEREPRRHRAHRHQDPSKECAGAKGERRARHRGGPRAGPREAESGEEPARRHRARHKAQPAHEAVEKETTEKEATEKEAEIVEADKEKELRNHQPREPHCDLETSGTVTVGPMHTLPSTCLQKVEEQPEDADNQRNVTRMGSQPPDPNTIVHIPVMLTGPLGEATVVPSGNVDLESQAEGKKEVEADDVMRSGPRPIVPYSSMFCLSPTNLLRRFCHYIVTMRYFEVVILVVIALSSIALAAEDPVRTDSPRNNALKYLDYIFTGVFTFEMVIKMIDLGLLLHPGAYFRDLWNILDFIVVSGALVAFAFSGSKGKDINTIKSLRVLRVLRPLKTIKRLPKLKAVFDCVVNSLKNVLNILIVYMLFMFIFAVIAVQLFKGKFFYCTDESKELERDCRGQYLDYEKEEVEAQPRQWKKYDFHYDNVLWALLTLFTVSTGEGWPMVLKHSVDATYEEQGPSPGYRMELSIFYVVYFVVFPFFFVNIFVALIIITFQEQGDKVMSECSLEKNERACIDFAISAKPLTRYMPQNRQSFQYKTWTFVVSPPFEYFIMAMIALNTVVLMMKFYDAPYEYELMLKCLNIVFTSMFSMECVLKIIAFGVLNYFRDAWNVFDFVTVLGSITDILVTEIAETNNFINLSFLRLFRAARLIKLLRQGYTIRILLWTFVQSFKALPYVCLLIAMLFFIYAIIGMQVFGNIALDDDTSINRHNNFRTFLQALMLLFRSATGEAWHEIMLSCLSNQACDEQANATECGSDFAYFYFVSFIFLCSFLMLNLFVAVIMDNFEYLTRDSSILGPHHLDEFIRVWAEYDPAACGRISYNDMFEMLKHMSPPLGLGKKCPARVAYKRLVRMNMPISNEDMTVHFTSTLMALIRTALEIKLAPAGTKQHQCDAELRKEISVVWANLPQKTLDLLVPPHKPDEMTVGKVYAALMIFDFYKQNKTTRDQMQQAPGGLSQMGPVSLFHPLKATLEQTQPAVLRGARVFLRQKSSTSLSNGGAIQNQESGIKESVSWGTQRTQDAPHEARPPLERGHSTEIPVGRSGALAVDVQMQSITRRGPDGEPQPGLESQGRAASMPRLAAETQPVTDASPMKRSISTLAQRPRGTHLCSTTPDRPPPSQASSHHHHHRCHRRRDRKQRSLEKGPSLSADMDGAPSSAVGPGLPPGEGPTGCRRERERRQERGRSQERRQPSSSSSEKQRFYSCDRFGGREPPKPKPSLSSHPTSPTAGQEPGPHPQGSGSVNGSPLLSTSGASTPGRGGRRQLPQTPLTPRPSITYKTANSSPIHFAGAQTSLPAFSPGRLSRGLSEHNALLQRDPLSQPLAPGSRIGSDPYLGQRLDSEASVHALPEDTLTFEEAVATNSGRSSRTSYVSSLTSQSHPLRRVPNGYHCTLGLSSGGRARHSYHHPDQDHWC
T1 sequence (P54289 25-956 partner limits assumed): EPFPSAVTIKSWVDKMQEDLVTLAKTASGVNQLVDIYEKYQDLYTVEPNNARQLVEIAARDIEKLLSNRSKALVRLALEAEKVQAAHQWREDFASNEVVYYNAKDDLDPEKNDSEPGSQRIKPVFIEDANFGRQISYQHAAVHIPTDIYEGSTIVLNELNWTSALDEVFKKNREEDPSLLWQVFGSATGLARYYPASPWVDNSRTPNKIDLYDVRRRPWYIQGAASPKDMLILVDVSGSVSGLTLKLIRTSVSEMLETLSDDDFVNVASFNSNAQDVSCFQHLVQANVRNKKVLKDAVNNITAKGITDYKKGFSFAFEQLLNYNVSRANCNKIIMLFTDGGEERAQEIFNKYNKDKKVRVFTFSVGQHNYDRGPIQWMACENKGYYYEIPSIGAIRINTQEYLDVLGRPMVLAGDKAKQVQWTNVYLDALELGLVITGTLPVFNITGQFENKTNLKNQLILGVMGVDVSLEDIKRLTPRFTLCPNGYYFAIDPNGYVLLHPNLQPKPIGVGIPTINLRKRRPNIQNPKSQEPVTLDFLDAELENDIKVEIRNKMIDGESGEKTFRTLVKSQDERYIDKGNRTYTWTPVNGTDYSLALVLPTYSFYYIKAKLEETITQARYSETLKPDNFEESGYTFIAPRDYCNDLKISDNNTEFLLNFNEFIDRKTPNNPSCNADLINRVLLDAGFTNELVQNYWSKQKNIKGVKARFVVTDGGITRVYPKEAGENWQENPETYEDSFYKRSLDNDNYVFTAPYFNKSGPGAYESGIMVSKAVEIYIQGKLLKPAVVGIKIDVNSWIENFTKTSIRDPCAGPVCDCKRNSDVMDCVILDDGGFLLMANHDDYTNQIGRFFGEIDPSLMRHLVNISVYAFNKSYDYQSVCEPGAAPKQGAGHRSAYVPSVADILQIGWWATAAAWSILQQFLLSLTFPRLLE
T1 sequence (P54289 957-1103 partner limits assumed): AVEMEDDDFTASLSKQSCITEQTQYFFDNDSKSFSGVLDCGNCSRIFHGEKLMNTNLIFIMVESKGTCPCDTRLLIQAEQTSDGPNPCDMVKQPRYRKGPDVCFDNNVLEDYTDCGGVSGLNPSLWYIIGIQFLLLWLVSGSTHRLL
T1 sequence (P54284 whole entry partner): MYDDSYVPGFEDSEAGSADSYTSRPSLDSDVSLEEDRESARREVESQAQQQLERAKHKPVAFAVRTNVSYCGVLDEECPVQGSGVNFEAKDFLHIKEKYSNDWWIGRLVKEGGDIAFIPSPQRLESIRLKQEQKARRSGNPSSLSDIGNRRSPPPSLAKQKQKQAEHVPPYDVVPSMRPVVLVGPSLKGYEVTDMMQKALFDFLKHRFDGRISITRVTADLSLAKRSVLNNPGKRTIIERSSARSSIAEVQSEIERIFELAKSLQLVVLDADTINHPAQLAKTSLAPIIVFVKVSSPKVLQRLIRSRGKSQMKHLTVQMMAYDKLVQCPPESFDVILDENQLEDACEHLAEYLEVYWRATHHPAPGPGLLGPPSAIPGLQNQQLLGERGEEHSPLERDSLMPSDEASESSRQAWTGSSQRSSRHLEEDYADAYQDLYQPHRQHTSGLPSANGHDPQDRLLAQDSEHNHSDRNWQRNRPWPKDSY

What is called pIC50 is the negative decadic logarithm of the IC50, by convention in mol/L. As for `CC(C)(C)NC(=O)[C@H](Cc1ccc(OCc2ccccc2)cc1)NC(=O)C1(c2ccccc2)CCCC1` [Example 1, (S)-1-Phenyl-cyclopentanecarboxylic acid [2-(4-benzyloxy-phenyl)-1-tert-butylcarbamoyl-ethyl]-amide], the negative-log IC50 (pIC50) on N-type Ca^2+ channel is 5.92.

For the compound `CC(C)CCN(CCC(C)C)[C@@H](Cc1ccc(OCc2ccccc2)cc1)C(=O)NC(C)(C)C.Cl` [Example 3, (S)-3-(4-Benzyloxy-phenyl)-2-[bis-(3-methyl-butyl)-amino]-N-tert-butyl-propionamide monohydrochloride], in the test with DBA/2 mice (setting [1]), the “Number of Mice Protected from Tonic Convulsions” value (“Number of Mice Protected” below) was 4/5. The pIC50 on N-type Ca^2+ channel was 6.12.

`CC(C)CCC(CCC(C)C)N[C@@H](Cc1ccc(OCc2ccccc2)cc1)C(=O)NC(C)(C)C.Cl` [Example 4, (S)-3-(4-Benzyloxy-phenyl)-N-tert-butyl-2-[4-methyl-1-(3-methyl-butyl)-pentylamino]-propionamide monohydrochloride]: at N-type Ca^2+ channel, the “IMR32 % @ 1” value is 45% and the “IMR32 % @ 10” value is recorded as 102%.

With `CC(C)CCN(CC1CCCCC1)[C@@H](Cc1ccc(OCc2ccccc2)cc1)C(=O)NC(C)(C)C.Cl` [Example 5, (S)-3-(4-Benzyloxy-phenyl)-N-tert-butyl-2-[cyclohexyl-methyl-(3-methyl-butyl)-amino]-propionamide monohydrochloride], on N-type Ca^2+ channel, the “IMR32 % @ 1” value was 27% and the “IMR32 % @ 10” value amounted to 61%.

Turning to `CC(C)CCN(CCC(C)(C)C)[C@@H](Cc1ccc(OCc2ccccc2)cc1)C(=O)NC(C)(C)C.Cl` [Example 6, (S)-3-(4-Benzyloxy-phenyl)-N-tert-butyl-2-[(3,3-dimethyl-butyl)-(3-methyl-butyl)-amino]-propionamide monohydrochloride], the “Number of Mice Protected” value in the test with DBA/2 mice (setting [1]) is listed as 2/5; in the test with DBA/2 mice (setting [2]), 4/5. At N-type Ca^2+ channel, the pIC50 was 6.36.

For the compound `CC(C)(C)CCN[C@@H](Cc1ccc(OCc2ccccc2)cc1)C(=O)NC(C)(C)C` [Example 7, (S)-3-(4-Benzyloxy-phenyl)-N-tert-butyl-2-(3,3-dimethyl-butylamino)-propionamide monohydrochloride], the negative logarithm of the IC50 (pIC50) on N-type Ca^2+ channel is 5.85.

Take `CC(C)(C)CCN(CCC(C)(C)C)[C@@H](Cc1ccc(OCc2ccccc2)cc1)C(=O)NC(C)(C)C` [Example 8, (S)-3-(4-Benyloxy-phenyl)-2-[bis-(3,3-dimethyl-butyl)-amino]-N-tert-butyl-propionamide monohydrochloride]: at N-type Ca^2+ channel, the pIC50 is 6.10.

Turning to `CC(C)(C)NC(=O)[C@H](Cc1ccc(OCc2ccccc2)cc1)NCc1ccc(C(C)(C)C)cc1` [Example 9, (S)-3-(4-Benzyloxy-phenyl)-N-tert-butyl-2-(4-tert-butyl-benzylamino)-propionamide monohydrochloride], the pIC50 on N-type Ca^2+ channel is 5.70.

In the case of `CC(C)(C)c1ccc(CN(Cc2ccc(C(C)(C)C)cc2)[C@@H](Cc2ccc(OCc3ccccc3)cc2)C(=O)NCCN2CCCCC2)cc1` [Example 10, (S)-3-(4Benzyloxy-phenyl)-2-[bis-(4-tert-butyl-benzyl)-amino]-N-(2-piperidin-1-yl-ethyl)-propionamide], the negative-log IC50 (pIC50) at N-type Ca^2+ channel is 6.17.

Turning to `CC(C)(C)c1ccc(CN(Cc2ccc(C(C)(C)C)cc2)C(CNCCN2CCCCC2)Cc2ccc(OCc3ccccc3)cc2)cc1` (centres unmarked) [Example 11, 3-(4-Benzyloxy-phenyl)-N^2, N^2-bis-(4-tert-butyl-benzyl)-N^1-(2-piperidin-1-yl-ethyl)-propane-1,2-diamine], on N-type Ca^2+ channel, the negative-log IC50 (pIC50) was 6.77.

Regarding `CC(C)(C)c1ccc(CNC(CNCCN2CCCCC2)Cc2ccc(OCc3ccccc3)cc2)cc1` (centres unmarked) [Example 12, 3-(4-Benzyloxy-phenyl)-N^2-(4-tert-butyl-benzyl)-N^1-(2-piperidin-1-yl-ethyl)-propane-1,2-diamine], the “Number of Mice Protected” value with DBA/2 mice (setting [3]) was 0/5. Also, on N-type Ca^2+ channel, the pIC50 is 6.55.

Consider `CC(C)(C)c1ccc(CN[C@@H](Cc2ccc(OCc3ccccc3)cc2)C(=O)NCCN2CCCCC2)cc1` [Example 13, (S)-3-(4-Benzyloxy-phenyl)-2-(4-tert-butyl-benzylamino)-N-(2-piperidin-1-yl-ethyl)-propionamide], for which the “Number of Mice Protected” value in the test on DBA/2 mice (setting [3]) is on record as 0/5; with DBA/2 mice (10 mg/kg IV, 45 minutes post treatment) it was 1/5; in the test on DBA/2 mice (setting [1]), 4/5; in the test with DBA/2 mice (setting [2]), 4/5. In addition, the negative-log IC50 (pIC50) at N-type Ca^2+ channel was 6.15.

Consider `CC(C)(C)NCC(Cc1ccc(OCc2ccccc2)cc1)NCc1ccc(C(C)(C)C)cc1` (centres unmarked) [Example 14, 3-(4-Benzyloxy-phenyl)-N^1-tert-butyl-N^2-(4-tert-butyl-benzyl)-propane-1,2-diamine], for which the “Number of Mice Protected” value in the test with DBA/2 mice (setting [1]) is 5/5; in the test with DBA/2 mice (setting [2]), 4/5. Also, the negative logarithm of the IC50 (pIC50) on N-type Ca^2+ channel is 6.35.

With “(S)-3-(4-Benzyloxy-phenyl)-N-tert-butyl-2-(3-methyl-butylamino)-propionamide monohydrochloride [Example 2]”, the negative-log IC50 (pIC50) on N-type Ca^2+ channel was 5.70.

The values above are taken from patent US6180677A, “Tyrosine-derived compounds as calcium channel antagonists” (Warner-Lambert Company, priority 1999, dated 2001).
